Data set [1] is described as follows: Rat pharmacokinetics of otenaproxesul amorphous dispersion (Example 19). It is filed as in vivo, Rats. Particulars: HED 260 mg once daily. As for the experimental part:
Rats were administered five treatment doses of the otenaproxesul amorphous solid dispersion (i.e., exemplary ASD no. 1 (35% drug: 65% polymer by weight)) and a crystalline otenaproxesul control dose. […] One group of rats was administered a human equivalent dose of 208 mg twice daily (416 mg total daily dose). Crystalline otenaproxesul was administered at the no observed adverse effect level (NOAEL) dose equivalent to a human dose of 260 mg once daily.
Pharmacokinetic data was evaluated on M25 plasma naproxen concentrations at 60 minutes post administration, Day 1 M25 plasma exposure (AUC0-24) and Day 4 M25 plasma exposure (AUC0-Last). Assessment of dose proportional characteristics for both M25 plasma concentration and AUC exposure were measured.
The human equivalent dose (HED) is related to the administered rat dose by an allometric scaling formula, for example: HED (mg)=([rat dose in mg/kg×0.16]×65 kg).

A short description of data set [2]: H2S release / formulation stability in simulated gastric fluid. Particulars: SGF, 1 mg/ml, 37° C., 5% CO2. As to the method:
Assay design: 1 mg of exemplary ASD no. 1 and crystalline otenaproxesul were weighed in separate glass vials. SGF was added to prepare a 1 mg/ml solution which was incubated at 37° C. with 5% CO2. 120 μl was removed at 0, 0.5, 1, 2, 3, 4 and 8 hrs and quenched in DPD and FeCl3 solutions. A blank and 10 mM stock was also analyzed. The methylene blue was analyzed using HPLC.
As H2S is volatile in the acidic form the calibration curve was not plotted, however H2S release was compared to T0.

Data set [3] is described as follows: Dog pharmacokinetics of otenaproxesul amorphous dispersion (Example 20). It counts as in vivo, male Beagle dogs. As to the method:
Summary: Over a 4-day treatment period dogs were administered four treatment doses of the otenaproxesul amorphous solid dispersion formulation (exemplary ASD no. 1) and a crystalline otenaproxesul control dose. Treatments corresponding to human equivalent doses of 70.2 mg, 140.4 mg, 280.8 mg and 561.6 mg otenaproxesul were administered once daily to male (n=4) dogs. Crystalline otenaproxesul was administered at the NOAEL dose equivalent to a human dose of 526.5 mg otenaproxesul once daily.
Pharmacokinetic data were evaluated on M25 plasma naproxen concentrations at 60 minutes post administration (C60), Day 1 M25 plasma exposure (AUC0-24) and Day 4 M25 plasma exposure (AUC0-Last). Assessment of dose proportional characteristics for M25 plasma concentration at 60 minutes post administration (C60) and at maximal concentration (Cmax) and AUC exposure were measured on Day 1 and Day 4 of treatment.

Another data set concerns liver adverse effects. In words: Clinical study of three crystalline otenaproxesul regimens, liver safety. It counts as in vivo, human. Particulars: 1500 mg single; 1500 mg + 100 mg Days 2-5; 2000 mg single. As for the experimental part:
Data were collected over a 312-hour period at protocol-specified intervals. Sampling was most frequent during the first 2 hours post drug administration. Treatment regimens were (i) otenaproxesul single dose 1500 mg (Total 1500 mg); (ii) crystalline otenaproxesul Day 1 single dose 1500 mg plus 100 mg on Days 2-5 (Total 1900 mg) or (iii) crystalline otenaproxesul single dose 2000 mg (Total 2000 mg).

In the next data set the test system is ALT and/or AST. In words: Phase 2b study, liver transaminase elevations. It counts as in vivo, human. As for the experimental part:
Study visits occurred on Day 1, Day 4, and Day 14 of the 14-day treatment phase and included WOMAC evaluations, blood samples for thromboxane B2 TXB2 and pharmacokinetic (PK) testing. The safety of otenaproxesul was evaluated through monitoring for adverse events (AEs), changes in physical examinations, vital signs measurements, and clinical laboratory evaluations.
All patients receiving any amount of study treatment (otenaproxesul or placebo) were included in the safety analysis. Each treatment arm was evaluated separately. In addition to the evaluation and categorization of treatment-emergent adverse events (TEAEs), listings of laboratory test results collected at Baseline and during the study were generated. Descriptive statistics summarizing the changes in those laboratory tests over time were presented.
The majority of otenaproxesul liver associated TEAEs were alanine aminotransferase (ALT) and/or aspartate aminotransferase (AST) liver transaminase elevations. None of these TEAEs were observed during the 14-day treatment period but were captured at the Day 24/Early Termination (ET) follow up assessment.

The subject of the next data set is thromboxane B2. In words: Phase 2b study, plasma thromboxane B2. It counts as in vivo, human. As for the experimental part: Whole blood samples were taken pre-treatment and on Days 1, 4 and 14 for the measurement of thromboxane B2 as an index of cyclo-oxygenase enzyme inhibition. Thromboxane B2 levels were measured using the Thromboxane B2 Elisa Kit from Cayman Chemical, Ann Arbor Michigan. Instructions provided with the Kit were followed.
Blood samples for measurement of thromboxane concentrations were collected at room temperature in 10 mL red top, no additive Vacutainers. Blood samples were taken approximately 4 hours after dosing and divided into 2 aliquots. The first aliquot (1 mL) was prepared for the measurement of otenaproxesul-derived plasma naproxen concentrations. The second aliquot (2 mL) was further divided into 2 polypropylene tubes for the measurement of plasma thromboxane concentrations.

Data on two compounds can be found in patent US20260355142A1, “AMORPHOUS OTE[…] COMPOSITIONS AND USES THEREOF AND DOSAGE REGIMENS FOR OTENAPROXESUL” (ANTIBE THERAPEUTICS INC., priority 2022, published 2026).

Consider `COc1ccc2cc([C@H](C)C(=O)Oc3ccc(C(N)=S)cc3)ccc2c1` [crystalline otenaproxesul], for which the results for the “AUC increase between Day 1 and Day 4” value in data set [1] (female rats) and in data set [1] (male rats) were 60% and 30%, respectively. Further, the “Peak area of methylene blue (H2S release)” value is reported as 1.6 in data set [2] (0 hrs); 2.4 in data set [2] (0.5 hrs); 2 in data set [2] (1 hr); 2.3 in data set [2] (2 hrs); 1.8 in data set [2] (3 hrs); 1.9 in data set [2] (4 hrs). Also, the “Peak area of methylene blue (H2S release)” value in data set [2] (8 hrs) is given as 2.4. Further, the “M25 plasma concentration at 1 hour, Day 4, compared” value in data set [3] (crystalline HED 527 mg vs amorphous HED 562 mg) is “comparable M25 plasma concentrations”. Also, the “Cmax Day 4/Day 1 ratio” value in data set [3] (dogs, HED 526.5 mg) stood at 1.4. Moreover, the “steady state pharmacokinetics of M25 compared” value in data set [3] (dogs, crystalline 526.5 mg vs amorphous 561.6 mg HED) is “virtually identical”. Besides, in the data set on liver adverse effects, the liver adverse effects entry was “No subjects in any of the three treatment arms exhibited any liver adverse effects”.

On to `COc1ccc2cc([C@H](C)C(=O)Oc3ccc(C(N)=S)cc3)ccc2c1` [otenaproxesul, (S)-4-carbamothioylphenyl 2-(6-methoxynaphthalen-2-yl) propanoate], for which the “patients with treatment-related >3×ULN ALT and/or AST” value in the data set on ALT and/or AST (150 mg (6/61)) was found to be 9.8%; in the data set with ALT and/or AST (200 mg (9/125)), 7.2%; with ALT and/or AST (250 mg (17/132)) it was 12.9%. For the same compound, the entries for the “patients with treatment-related increases in ALT and/or AST” value with ALT and/or AST (150 mg (6/61)), in the data set on ALT and/or AST (200 mg (9/125)) and with ALT and/or AST (250 mg (17/132)) were 9.8%, 7.2% and 12.9%, respectively. The “plasma thromboxane B2 levels” value in the data set with thromboxane B2 (150 mg daily) is reported as “marked reduction in plasma thromboxane B2 levels”. In the data set with thromboxane B2 (Day 1, 150, 200, 250 mg), the TXB2 levels entry is on record as “significant suppression of thromboxane B2 levels”. Further, the “inhibition of TXB2 synthesis” value is reported as “profound inhibition of thromboxane B2 synthesis” with thromboxane B2 (Day 4, 150, 200, 250 mg) and “profound inhibition of thromboxane B2 synthesis” in the data set with thromboxane B2 (Day 14, 150, 200, 250 mg).
